Experimental data published in patent publication US9164086B2, “Fluorescent dyes with phosphorylated hydroxymethyl groups and their use in light microscopy and imaging techniques” (Max-Planck-Gesellschaft zur Foerderung der Wissenschaften …, priority 2011, dated 2015).
Entries after “also recorded” stand apart in the source; their conditions may differ. One block for each molecule: values may come before it.

Experiments:
[1] = commercial dyes, solvent not stated; cited from earlier work
[2] = Fluorescence spectra, quantum yield and excited state lifetime; type: physicochemical; settings: for Φfl. / Φfl. of the conjugate: as fraction; for fluorescence quantum yield of the antibody conjugates obtained from the dye: after attaching to antibodies; for λem of the conjugate / Φfl. of the conjugate: conjugate with sheep anti-mouse IG
Procedure: (§1) UV-visible absorption spectra were recorded on a Varian Cary 4000 UV-Vis spectrophotometer, and fluorescence spectra on a Varian Cary Eclipse fluorescence spectrophotometer. Reactions were carried out with magnetic stirring in Schlenk flasks equipped with septa or reflux condensers with bubble-counters under argon using a standard manifold with vacuum and argon lines. The MICROTOF spectrometer equipped with ESI ion source Apollo and direct injector with LC autosampler Agilent RR 1200 was used for obtaining mass spectra and high resolution mass-spectra (ESI-HRMS). ESI-HRMS were obtained also on APEX IV spectrometer (Bruker). ESI spectra were also obtained on a Varian 500MS spectrometer in some cases. HPLC system (Knauer): Smartline pump 1000 (2×), UV detector 2500, column thermostat 4000 (25° C.), mixing chamber, injection valve with 20 and 100 μL loop for analytical and preparative columns, respectively; 6-port-3-channel switching valve; analytical column: Eurospher-100 C18, 5 μm, 250×4 mm, 1.2 mL/min; preparative column: Eurospher-100-5 C18, 5 μm, 250×8 mm, 4 mL/min; solvent A: water+0.1% v/v trifluoroacetic acid (TFA); solvent B: CH3CN+0.1% v/v TFA; detection at 636 nm (if not stated otherwise). Normal phase analytical TLC was performed on MERCK ready-to-use plates with silica gel 60 (F254).

Solubility (qualitative) = type: physicochemical; settings: for solubility in other solvents and buffers: solvents named in the value
[3] = UV-visible absorption spectra; type: physicochemical; settings: for λabs of the conjugate: conjugate with sheep anti-mouse IG
Procedure: as §1

λem of the conjugate ([2]; PBS buffer at pH 7.4): 513 nm
Φfl. of the conjugate ([2]; PBS buffer at pH 7.4): 0.30
λabs of the conjugate ([3]; PBS buffer at pH 7.4): 439 nm
Structure (SMILES): CC1(C)C=C(COP(=O)(O)O)c2cc3cc(-c4ccncc4)c(=O)oc3cc2N1CCCC(=O)ON1C(=O)CCC1=O [Compound 12]

fluorescence quantum yields (in words) [2]: high
Φfl (fluorescence quantum yield) ([2]; MeOH): 56%
λmax (fl.) ([2]; MeOH): 510 nm
Φfl. ([2]; MeOH): 0.56
Φfl (fluorescence quantum yield) ([2]; PBS (7.4)): 57%
λmax (fl.) ([2]; PBS (7.4)): 515 nm
Φfl. ([2]; PBS buffer at pH 7.4): 0.57
fluorescence quantum yield of the antibody conjugates obtained from the dye [2]: 18%
ε ([3]; MeOH): 25900 M⁻¹ cm⁻¹
ε · 10^−4 ([3]; MeOH): 2.59 M^−1 cm^−1
λmax (abs.) ([3]; MeOH): 436 nm
ε · 10^−4 ([3]; PBS (7.4)): 3.12 M^−1 cm^−1
λmax (abs.) ([3]; PBS (7.4)): 436 nm
ε ([3]; PBS buffer at pH 7.4): 31200 M⁻¹ cm⁻¹
Structure (SMILES): CC1(C)C=C(CS(=O)(=O)O)c2cc3cc(-c4ccncc4)c(=O)oc3cc2N1CCCC(=O)O [Compound 20-H, reference compound]

λem of the conjugate ([2]; PBS buffer at pH 7.4): 512 nm
Φfl. of the conjugate ([2]; PBS buffer at pH 7.4): 0.18
λabs of the conjugate ([3]; PBS buffer at pH 7.4): 437 nm
Structure (SMILES): CC1(C)C=C(CS(=O)(=O)O)c2cc3cc(-c4ccncc4)c(=O)oc3cc2N1CCCC(=O)ON1C(=O)CCC1=O [Compound 20-NHS, reference compound]

The next lines start with the molecule.

Structure (SMILES): CC1(C)C=C(CS(=O)(=O)O)c2cc3c(C(F)(F)F)cc(=O)oc3cc2N1CCCCCC(=O)ON1C(=O)CCC1=O.CCN(CC)CC [Alexa Fluor™ 430]
absorption maximum [1]: 434 nm
emission maximum [1]: 539 nm

Structure (SMILES): CC(C)(C)OC(=O)CCCN1c2cc3oc(=O)c(-c4ccncc4)cc3cc2C(COP(=O)(OC(C)(C)C)OC(C)(C)C)=CC1(C)C [Compound 10]
fluorescence quantum yields (in words) [2]: high
Φfl (fluorescence quantum yield) ([2]; MeOH): 82%
λmax (fl.) ([2]; MeOH): 501 nm
Φfl. ([2]; MeOH): 0.82
Remarks: solubility in water (Solubility (qualitative); water): Low solubility in water
ε ([3]; MeOH): 30700 M⁻¹ cm⁻¹
ε · 10^−4 ([3]; MeOH): 3.07 M^−1 cm^−1
λmax (abs.) ([3]; MeOH): 430 nm

Structure (SMILES): CC1(C)C=C(COP(=O)(O)O)c2cc3cc(-c4ccncc4)c(=O)oc3cc2N1CCCC(=O)O [Compound 11]
Stokes shift [2]: 79 nm
fluorescence quantum yields (in words) [2]: high
Φfl (fluorescence quantum yield) ([2]; PBS (7.4)): 68%
λmax (fl.) ([2]; PBS (7.4)): 515 nm
τ1 (lifetime of the excited state) ([2]; PBS (7.4)): 3.3 ns
Φfl. ([2]; PBS buffer at pH 7.4): 0.68
fluorescence quantum yield of the antibody conjugates obtained from the dye [2]: 30%
ε · 10^−4 ([3]; PBS (7.4)): 2.27 M^−1 cm^−1
λmax (abs.) ([3]; PBS (7.4)): 436 nm
ε ([3]; PBS buffer at pH 7.4): 22700 M⁻¹ cm⁻¹

Structure (SMILES): CCOC(=O)CCCN1c2cc3oc(=O)c(-c4ccncc4)cc3cc2C(C)=CC1(C)C [Compound 18, reference compound]
fluorescence quantum yields (in words) [2]: high
Φfl (fluorescence quantum yield) ([2]; MeOH): 77%
λmax (fl.) ([2]; MeOH): 507 nm
Φfl. ([2]; MeOH): 0.77
Remarks: solubility in water (Solubility (qualitative); water): Low solubility in water
ε ([3]; MeOH): 33400 M⁻¹ cm⁻¹
ε · 10^−4 ([3]; MeOH): 3.34 M^−1 cm^−1
λmax (abs.) ([3]; MeOH): 437 nm

Structure (SMILES): CN(CCCC(=O)O)C(=O)c1c(F)c(F)c(F)c(F)c1C1=c2cc3c4c(c2Oc2c1cc1c5c2CCCN5C(C)(C)C=C1CO)CCC[N+]=4C(C)(C)C=C3CO [Compound 24-H]
Φfl (fluorescence quantum yield) ([2]; H2O): 85%
λmax (fl.) ([2]; H2O): 654 nm
fluorescence quantum yield of the antibody conjugates obtained from the dye [2]: 66%
solubility in aqueous buffers (Solubility (qualitative); aqueous buffers): low solubility in aqueous buffers
solubility in other solvents and buffers (Solubility (qualitative)): well-soluble in MeOH, CH3CN, and chlorinated solvents
Remarks: solubility in water (Solubility (qualitative); water): Limited solubility in water
solubility in water (Solubility (qualitative); water): slightly soluble in water
ε · 10^−4 ([3]; H2O): 8.6 M^−1 cm^−1
λmax (abs.) ([3]; H2O): 632 nm

Structure (SMILES): CN(CCCC(=O)O)C(=O)c1c(F)c(F)c(F)c(F)c1C1=c2cc3c4c(c2Oc2c1cc1c5c2CCCN5C(C)(C)C=C1COP(=O)(O)O)CCC[N+]=4C(C)(C)C=C3COP(=O)([O-])O [Compound 26-H]
Φfl (fluorescence quantum yield) ([2]; H2O): 83%
λmax (fl.) ([2]; H2O): 655 nm
τ1 (lifetime of the excited state) ([2]; H2O, monoexponential fit): 3.0 ns
fluorescence quantum yield of the antibody conjugates obtained from the dye [2]: 51%
solubility in other solvents and buffers (Solubility (qualitative)): well-soluble in aq. NaHCO3, alkali, Et3N, and PBS buffers, MeOH; also recorded: insoluble in acetone, CH3CN, chloroform
ε · 10^−4 ([3]; H2O): 7.5 M^−1 cm^−1
λmax (abs.) ([3]; H2O): 635 nm
